“Also recorded” adds a separate entry of the source.
Tests used:
[1] = tested on: SH-1 human melanoma xenografts; test: antitumor response against SH-1 human melanoma xenografts in mice; assay type: in vivo; details: SH-1, BENSPM at 80 mg/kg
Method: (§1) […] where 1 represents length; w--width; and h--height. Tumor sizes were monitored 2 times/week until the median volume (V=0.4(a^2 ×b) where a is the smaller of the two perpendicular tumor diameters). As an indication of drug toxicity, animal weights were also recorded at the time of tumor volume measurement. Statistical analyses were performed on mouse tumor size and weight parameters by using the Mann-Whitney test.
(§2) Tumor growth suppression was measured by plotting the mean tumor volume versus the number of days post-inoculation with polyamine analog (growth curve analyses). Suppression is determined by comparison with the growth of untreated tumors (%T/C). More specifically,: %T/C is (treated tumor volume minus pretreatment volume) divided by (control tumor volume minus pretreatment volume)×100. Typically this is measured either when the control tumor volume reaches 1000 mm^3, or at the last day of treatment.
(§3) Tumor regression is measured as a percentage representing the average percentage of decrease in tumor volume from the largest pretreatment volume value.
(§4) Repression of regrowth is represented as regrowth delay, determined as the number of days following cessation of treatment when median group tumor volume exceeds 200 mm^3 (an arbitrary indication of regrowth which was determined statistically).
(§5) For example, human melanoma cell lines including MALME-3, SH-1, PANUT-3 and LOX were evaluated for the level of SSAT induction and potency of antitumor response following BENSPM treatment (80 mg/kg 3×/day×6 days) using the methodology previously described in this embodiment. […] The baseline of SSAT activity in the control mice (2 examined of 7 mice) ranged from 50 to 90 pmol/min/mg. […] Note that following BENSPM treatment (as discussed above in the context of Tables 4 and 5), suppression of tumor growth of PANUT-3, unlike suppression of MALME-3 growth, lasted for only about 12 days. Further, the levels of SSAT in PANUT-3 at two weeks post-treatment, approached the levels in the control and correlated with the loss of antitumor activity.

[2] = BENSPM (analog) pools in tumor and host tissue; assay type: in vivo, mouse; design: BENSPM pool (tissue content): unit not given here
[3] = tested on: LOX human melanoma xenografts; test: antitumor response against LOX human melanoma xenografts in mice; assay type: in vivo
Method: as §1, §2, §3, §4
For example, SSAT activity and potency of antitumor response was examined for LOX and MALME-3 melanoma xenografts in mice. Mice developing palpable tumors of a similar size were divided into different treatment groups comprising 7 mice per treatment group, and 7 control mice per treatment group. The treated mice received 40 mg/kg of BENSPM administered every 8 hours for a 5 day period. Melanoma tumor cells comprising the human xenografts were removed from two mice of each group at 16 hours following the final BENSPM injection to evaluate the level of induction of SSAT activity. The antitumor response from polyamine analog therapy was assessed in the five remaining mice from each group by monitoring the tumor volume of the xenografts over days following treatment as compared to untreated xenografts.
as §5

[4] = tested on: PANUT-3 human melanoma xenografts; test: antitumor response against PANUT-3 human melanoma xenografts in mice; assay type: in vivo
Method: as §1, §2, §3, §4, §5

[5] = tested on: polyamine pools of host tissue; test: polyamine pools in host tissue of treated mice; assay type: in vivo, mouse; design: unit not given here; details: 40 mg/kg
[6] = tested on: human tumor xenografts; test: antitumor efficacy in-vivo (general statement); details: compared to other bis-ethyl spermine analogs
[7] = tested on: SH-1 human melanoma cells; test: growth of SH-1 melanoma cells in-vitro (FIG. 5); assay type: cell-based; details: SH-1, 10 μM BESPM, 48 hours
Method: As mentioned previously, cells from malignant solid tumor respond to polyamine analog therapy heterotypically. SSAT induction and antitumor response may vary not only among the solid tumor tissue type, but also with the clonal line of tumor of a particular solid tissue type. However, a correlation between the level of induction of SSAT and the potency of antitumor response has been observed in tumors of a particular solid tissue type. For example, seven human melanoma cell lines were assayed in-vitro for their response, as determined by cell growth and level of SSAT induction, to 10 μM BESPM at 48 hours post-treatment. As summarized in FIG. 5, growth among the cell lines decreases as SSAT induction increases.

[8] = tested on: MALME-3 melanoma cells; test: N^1 -acetylspermidine in MALME-3 cell cultures; assay type: cell-based, human; details: MALME-3, 10 μm BESPM, 48 hours
Method: To illustrate this embodiment, LOX and MALME-3 cell cultures were treated for 48 hours with 10 μm BESPM. The cells from each culture were harvested and assayed for SSAT activity. Media samples were prepared by treating the samples with 50% trichloroacetic acid to give a final concentration of 10% and then centrifuged at 15,000×g for 10 minutes. The supernatant was then filtered through a 0.22-μm filter, extracted with several volumes of ether, lyophilized, and resuspended in 10% trichloroacetic acid. N^1 -acetylspermidine levels of cells and media samples were then measured by use of high-pressure liquid chromatography. […] Similarly, N^1 -acetylspermidine levels from MALME-3 control cells, media from control cell cultures, and treated MALME-3 cells contained minimal levels of N^1 -acetylspermidine.

[9] = tested on: natural polyamine pools; details: in-vitro; cited from earlier work
[10] = tested on: NCI H157 human large cell lung carcinoma cell line; details: cited from earlier work

Compound: CCNCCCNCCCNCCCNCC [BENSPM, N^1,N^11 -bis(ethyl)norspermine]
- % T/C at 1 g [1]: < 0%
- Tumor Regression [1]: Present
- Regrowth Delay ([1]; dt 15 days): 2.1 × dt
- No Regrowth ([1]; for duration of experiment): 1/5
- BENSPM pool (tissue content) ([2]; MALME-3 tumor, 40 mg/kg 3x/day 6 days, 16 hrs post-treatment): 1020/1535
- BENSPM pool (tissue content) ([2]; MALME-3 tumor, 40 mg/kg, 2 wks post-treatment): 620/470
- BENSPM pool (tissue content) ([2]; kidney, 40 mg/kg, 2 wks post-treatment): 90/150
- BENSPM pool (tissue content) ([2]; kidney, 40 mg/kg, 16 hrs post-treatment): 860/1705
- BENSPM pool (tissue content) ([2]; liver, 40 mg/kg, 2 wks post-treatment): 40/40
- BENSPM pool (tissue content) ([2]; liver, 40 mg/kg, 16 hrs post-treatment): 1180/1470
- metabolite peak of BENSPM ([2]; tumor, kidney and liver, 40 mg/kg, 16 hrs post-treatment): a peak which was similar in height to the SPM peak
- tumor regression, regrowth delay, lack of regrowth (FIG. 6) ([3]; LOX xenograft, 40 mg/kg every 8 hours for 5 days): no significant tumor regression, regrowth delay, nor lack of regrowth
- % T/C at 1 g ([3]; LOX, BENSPM at 80 mg/kg): 40%
- Tumor Regression ([3]; LOX, BENSPM at 80 mg/kg): None
- Regrowth Delay ([3]; LOX, BENSPM at 80 mg/kg, dt 5 days): None
- No Regrowth ([3]; LOX, BENSPM at 80 mg/kg, for duration of experiment): 0/5
- tumor regression, PANUT-3 versus MALME-3 ([4]; BENSPM 80 mg/kg 3×/day×6 days): significantly more tumor regression
- % T/C at 1 g ([4]; PANUT-3, BENSPM at 80 mg/kg): 10%
- Tumor Regression ([4]; PANUT-3, BENSPM at 80 mg/kg): Major
- Regrowth Delay ([4]; PANUT-3, BENSPM at 80 mg/kg, dt 7 days): 2.7 × dt
- No Regrowth ([4]; PANUT-3, BENSPM at 80 mg/kg, for duration of experiment): 0/5
- duration of suppression of tumor growth ([4]; PANUT-3 xenograft, following BENSPM treatment): about 12 days
- PUT pool ([5]; kidney, 2 wks post-treatment): 20/20
- SPD pool ([5]; kidney, 2 wks post-treatment): 210/210
- SPM pool ([5]; kidney, 2 wks post-treatment): 360/370
- PUT pool ([5]; kidney, 16 hrs post-treatment): 100/40
- SPD pool ([5]; kidney, 16 hrs post-treatment): 100/100
- SPM pool ([5]; kidney, 16 hrs post-treatment): 260/250
- PUT pool ([5]; liver, 2 wks post-treatment): 20/20
- SPD pool ([5]; liver, 2 wks post-treatment): 530/530
- SPM pool ([5]; liver, 2 wks post-treatment): 400/330
- PUT pool ([5]; liver, 16 hrs post-treatment): 90/100
- SPD pool ([5]; liver, 16 hrs post-treatment): 80/90
- SPM pool ([5]; liver, 16 hrs post-treatment): 170/200
- antitumor efficacy / activity, relative [6]: most potent antitumor efficacy; also recorded: most potent antitumor activity

Compound: CCNCCCNCCCCNCCCNCC [BESPM, N^1,N^12-bis(ethyl)spermine]
- growth inhibition (FIG. 5) [7]: least growth inhibition
- N^1 -acetylspermidine Intracellular [8]: 0.1 nmol/culture
- natural polyamine pools [9]: deplete natural polyamine pools
- cytotoxic response and SSAT induction [10]: associated with a high induction of SSAT

— patent publication US5498522A, “Methods for the use of spermidine/spermine N^1 -acetyltransferase as a prognostic indicator and/or a tumor response marker” (priority 1993, dated 1996)
